Measured values published in ChEMBL document CHEMBL3045164, “Combination of flavopiridol and embelin effectively inhibit cell growth in hepatocellular carcinoma depending on regulatory relationship between CDK6 and XIAP” (Med Chem Res, 2012).
The source made the active and inactive calls. The calls are words filed in the database; no cut-off is given here.

What was measured:
Homo sapiens [1] = species on record: Homo sapiens; experiment: Cytotoxicity against Homo sapiens (human) HepG2(2.2.1) cells assessed as growth inhibition at 15 uM after 24 to 72 hr by WST-8 assay; type: functional, cell-based
Homo sapiens [2] = species on record: Homo sapiens; experiment: Cytotoxicity against Homo sapiens (human) HepG2(2.2.1) cells assessed as growth inhibition at 20 uM after 24 to 72 hr by WST-8 assay; type: functional, cell-based
Homo sapiens [3] = species on record: Homo sapiens; experiment: Cytotoxicity against Homo sapiens (human) HepG2(2.2.1) cells assessed as growth inhibition at 10 uM after 24 to 72 hr by WST-8 assay; type: functional, cell-based
[4] = Induction of apoptosis in Homo sapiens (human) HepG2(2.2.1) cells at 500 nM after 24 hr by annexin V-FITC/propidium iodide staining-based flow cytometric analysis (reference value: 2.20%); type: functional
[5] = Cell cycle arrest in Homo sapiens (human) HepG2(2.2.1) cells assessed as accumulation at S phase at 500 nM after 24 hr by propidium iodide staining-based flow cytometric analysis (reference value: 22.55 +/- 2.98 %); type: functional
[6] = Cell cycle arrest in Homo sapiens (human) HepG2(2.2.1) cells assessed as accumulation at G1 phase at 300 nM after 24 hr by propidium iodide staining-based flow cytometric analysis (reference value: 53.07 +/- 3.01 %); type: functional
Homo sapiens [7] = species on record: Homo sapiens; experiment: Cytotoxicity against Homo sapiens (human) HepG2(2.2.1) cells assessed as growth inhibition at 50 nM after 24 to 72 hr by WST-8 assay in presence of 10 uM XIAP inhibitor embelin; type: functional, cell-based
[8] = Cell cycle arrest in Homo sapiens (human) HepG2(2.2.1) cells assessed as accumulation at G1 phase at 500 nM after 24 hr by propidium iodide staining-based flow cytometric analysis (reference value: 53.07 +/- 3.01 %); type: functional
Homo sapiens [9] = species on record: Homo sapiens; experiment: (§1) Cytotoxicity against Homo sapiens (human) HepG2(2.2.1) cells assessed as growth inhibition after 24 to 72 hr by WST-8 assay; type: functional, cell-based
[10] = as §1; type: functional, cell-based
[11] = Downregulation of CDK1 expression in Homo sapiens (human) HepG2(2.2.1) cells at 500 nM after 24 hr by Western blot analysis; type: functional
[12] = Cell cycle arrest in Homo sapiens (human) HepG2(2.2.1) cells assessed as accumulation at G2 phase at 500 nM after 24 hr by propidium iodide staining-based flow cytometric analysis (reference value: 24.38 +/- 2.02 %); type: functional
[13] = Downregulation of CDK4 expression in Homo sapiens (human) HepG2(2.2.1) cells at 500 nM after 24 hr by Western blot analysis; type: functional
[14] = Downregulation of CDK6 expression in Homo sapiens (human) HepG2(2.2.1) cells at 500 nM after 24 hr by Western blot analysis; type: functional
[15] = Cell cycle arrest in Homo sapiens (human) HepG2(2.2.1) cells assessed as accumulation at S phase at 100 nM after 24 hr by propidium iodide staining-based flow cytometric analysis (reference value: 22.55 +/- 2.98 %); type: functional
[16] = Downregulation of cyclin D1 expression in Homo sapiens (human) HepG2(2.2.1) cells at 500 nM after 24 hr by Western blot analysis; type: functional
Homo sapiens [17] = species on record: Homo sapiens; experiment: Cytotoxicity against Homo sapiens (human) HepG2(2.2.1) cells assessed as growth inhibition at 100 nM after 24 to 72 hr by WST-8 assay; type: functional, cell-based
Homo sapiens [18] = species on record: Homo sapiens; experiment: Cytotoxicity against Homo sapiens (human) HepG2(2.2.1) cells assessed as growth inhibition at 100 nM after 24 to 72 hr by WST-8 assay in presence of 75 uM XIAP inhibitor embelin; type: functional, cell-based
Homo sapiens [19] = species on record: Homo sapiens; experiment: Cytotoxicity against Homo sapiens (human) HepG2(2.2.1) cells assessed as growth inhibition at 75 nM after 24 to 72 hr by WST-8 assay; type: functional, cell-based
[20] = Downregulation of XIAP expression in Homo sapiens (human) HepG2(2.2.1) cells after 24 hr by Western blot analysis; type: functional
Homo sapiens [21] = species on record: Homo sapiens; experiment: Cytotoxicity against Homo sapiens (human) HepG2(2.2.1) cells assessed as growth inhibition at 75 nM after 24 to 72 hr by WST-8 assay in presence of 15 uM XIAP inhibitor embelin; type: functional, cell-based
[22] = molecular target: Cyclin-dependent kinase 6 (Homo sapiens) (UniProt Q00534); experiment: Inhibition of CDK6 in Homo sapiens (human) HepG2(2.2.1) cells assessed as downregulation of XIAP expression at 500 nM after 24 hr by Western blot analysis
Sequence of Cyclin-dependent kinase 6 (Homo sapiens) (Q00534 whole entry): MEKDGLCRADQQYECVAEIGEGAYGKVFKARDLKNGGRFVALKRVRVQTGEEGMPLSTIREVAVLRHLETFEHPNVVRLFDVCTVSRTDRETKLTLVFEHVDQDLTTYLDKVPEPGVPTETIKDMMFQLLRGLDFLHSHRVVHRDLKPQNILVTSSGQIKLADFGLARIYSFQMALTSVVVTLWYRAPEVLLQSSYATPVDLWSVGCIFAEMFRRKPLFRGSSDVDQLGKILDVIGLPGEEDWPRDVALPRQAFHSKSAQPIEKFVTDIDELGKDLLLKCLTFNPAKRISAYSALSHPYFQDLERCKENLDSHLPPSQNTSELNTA

[23] = molecular target: G1/S-specific cyclin-D1 (Homo sapiens) (UniProt P24385); experiment: Inhibition of cyclin D1 in Homo sapiens (human) HepG2(2.2.1) cells assessed as downregulation of XIAP expression at 500 nM after 24 hr by Western blot analysis
Sequence of G1/S-specific cyclin-D1 (Homo sapiens) (P24385 whole entry): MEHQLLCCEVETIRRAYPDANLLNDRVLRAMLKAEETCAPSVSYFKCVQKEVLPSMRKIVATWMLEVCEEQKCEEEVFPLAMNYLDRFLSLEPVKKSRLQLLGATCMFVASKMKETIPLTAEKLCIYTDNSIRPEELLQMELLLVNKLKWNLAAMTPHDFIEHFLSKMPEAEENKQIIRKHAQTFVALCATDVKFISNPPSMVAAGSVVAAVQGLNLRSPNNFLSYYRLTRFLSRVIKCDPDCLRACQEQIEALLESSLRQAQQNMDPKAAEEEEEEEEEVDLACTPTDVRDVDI

[24] = Cell cycle arrest in Homo sapiens (human) HepG2(2.2.1) cells assessed as accumulation at S phase at 300 nM after 24 hr by propidium iodide staining-based flow cytometric analysis (reference value: 22.55 +/- 2.98 %); type: functional
[25] = molecular target: Cyclin-dependent kinase 4 (Homo sapiens) (UniProt P11802); experiment: Inhibition of CDK4 in Homo sapiens (human) HepG2(2.2.1) cells assessed as downregulation of XIAP expression at 500 nM after 24 hr by Western blot analysis
Sequence of Cyclin-dependent kinase 4 (Homo sapiens) (P11802 whole entry): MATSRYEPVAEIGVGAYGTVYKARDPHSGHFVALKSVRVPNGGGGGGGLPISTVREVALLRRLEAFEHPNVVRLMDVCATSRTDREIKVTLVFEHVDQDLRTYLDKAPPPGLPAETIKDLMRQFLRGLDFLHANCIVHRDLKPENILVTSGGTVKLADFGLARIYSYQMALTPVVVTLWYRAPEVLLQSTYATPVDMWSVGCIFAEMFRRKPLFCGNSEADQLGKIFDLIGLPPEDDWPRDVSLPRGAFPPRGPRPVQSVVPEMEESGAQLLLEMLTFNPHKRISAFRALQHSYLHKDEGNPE

[26] = Downregulation of CDK2 expression in Homo sapiens (human) HepG2(2.2.1) cells at 500 nM after 24 hr by Western blot analysis; type: functional
[27] = Cell cycle arrest in Homo sapiens (human) HepG2(2.2.1) cells assessed as accumulation at G2 phase at 100 nM after 24 hr by propidium iodide staining-based flow cytometric analysis (reference value: 24.38 +/- 2.02 %); type: functional
[28] = Downregulation of XIAP expression in Homo sapiens (human) HepG2(2.2.1) cells at 500 nM after 24 hr by Western blot analysis; type: functional
Homo sapiens [29] = species on record: Homo sapiens; experiment: Cytotoxicity against Homo sapiens (human) HepG2(2.2.1) cells assessed as growth inhibition at 50 nM after 24 to 72 hr by WST-8 assay; type: functional, cell-based
[30] = Cell cycle arrest in Homo sapiens (human) HepG2(2.2.1) cells assessed as accumulation at G1 phase at 100 nM after 24 hr by propidium iodide staining-based flow cytometric analysis (reference value: 53.07 +/- 3.01 %); type: functional
[31] = Cell cycle arrest in Homo sapiens (human) HepG2(2.2.1) cells assessed as accumulation at G2 phase at 300 nM after 24 hr by propidium iodide staining-based flow cytometric analysis (reference value: 24.38 +/- 2.02 %); type: functional

**Q.** For `CCCCCCCCCCCC1=C(O)C(=O)C=C(O)C1=O`, which “growth inhibition (GI)” value (Homo sapiens [1]) is on record?
**A.** Active

**Q.** And the “growth inhibition (GI)” value (Homo sapiens [2])?
**A.** Active

**Q.** What about the “growth inhibition (GI)” value (Homo sapiens [3]) of the same molecule?
**A.** Active

**Q.** For `CN1CC[C@H](c2c(O)cc(O)c3c(=O)cc(-c4ccccc4Cl)oc23)[C@H](O)C1` [ALVOCIDIB], which Activity [4] is on record?
**A.** 14.28%

**Q.** What about the Activity [5] of the same molecule?
**A.** 21.2%

**Q.** What about the Activity [6] of the same molecule?
**A.** 56.4%

**Q.** What about the “growth inhibition (GI)” value (Homo sapiens [7]) of the same molecule?
**A.** Active

**Q.** What about the Activity [8] of the same molecule?
**A.** 57.9%

**Q.** What about the “growth inhibition (GI)” value (Homo sapiens [9]) of the same molecule?
**A.** Dose-dependent effect

**Q.** What about the IC50 [10] of the same molecule?
**A.** 200 nM

**Q.** What about the Activity [11] of the same molecule?
**A.** inactive

**Q.** And the Activity [12]?
**A.** 20.9%

**Q.** And the Activity [13]?
**A.** Active

**Q.** And the Activity [14]?
**A.** Active

**Q.** What about the Activity [15] of the same molecule?
**A.** 22.2%

**Q.** And the Activity [16]?
**A.** Active

**Q.** And the “growth inhibition (GI)” value (Homo sapiens [17])?
**A.** Active

**Q.** What about the “growth inhibition (GI)” value (Homo sapiens [18]) of the same molecule?
**A.** Active

**Q.** What about the “growth inhibition (GI)” value (Homo sapiens [19]) of the same molecule?
**A.** Active

**Q.** And the Activity [20]?
**A.** Dose-dependent effect

**Q.** What about the “growth inhibition (GI)” value (Homo sapiens [21]) of the same molecule?
**A.** Active

**Q.** What about the inhibition [22] of the same molecule?
**A.** Active

**Q.** What about the inhibition [23] of the same molecule?
**A.** Active

**Q.** And the Activity [24]?
**A.** 27.9%

**Q.** What about the inhibition [25] of the same molecule?
**A.** Active

**Q.** What about the Activity [26] of the same molecule?
**A.** inactive

**Q.** And the Activity [27]?
**A.** 23.2%

**Q.** And the Activity [28]?
**A.** Active

**Q.** And the “growth inhibition (GI)” value (Homo sapiens [29])?
**A.** Active

**Q.** What about the Activity [30] of the same molecule?
**A.** 54.6%

**Q.** What about the Activity [31] of the same molecule?
**A.** 15.7%
